Several values for one entry are separate records, joined by “and”; a condition that tells them apart may be missing. Identical values can stand only once.
How the values were obtained:
H+,K+-ATPase [1] = target: T1, H+,K+-ATPase (Sus scrofa, UniProt P19156); test: K+-dependent ATPase assay, double reciprocal plot and Ki estimation; format: biochemical, pig; design: H^+,K^+-ATPase-enriched membrane fractions were purified from pig stomach; from tissue; host or cells: pig stomach (gastric membrane fractions); reciprocal K+-stimulated ATPase activity, Lineweaver-Burk raw data: unit not given here; conditions: for reciprocal K+-stimulated ATPase activity, Lineweaver-Burk raw data: replicate values
T1 sequence (P19156 2-1034 limits assumed): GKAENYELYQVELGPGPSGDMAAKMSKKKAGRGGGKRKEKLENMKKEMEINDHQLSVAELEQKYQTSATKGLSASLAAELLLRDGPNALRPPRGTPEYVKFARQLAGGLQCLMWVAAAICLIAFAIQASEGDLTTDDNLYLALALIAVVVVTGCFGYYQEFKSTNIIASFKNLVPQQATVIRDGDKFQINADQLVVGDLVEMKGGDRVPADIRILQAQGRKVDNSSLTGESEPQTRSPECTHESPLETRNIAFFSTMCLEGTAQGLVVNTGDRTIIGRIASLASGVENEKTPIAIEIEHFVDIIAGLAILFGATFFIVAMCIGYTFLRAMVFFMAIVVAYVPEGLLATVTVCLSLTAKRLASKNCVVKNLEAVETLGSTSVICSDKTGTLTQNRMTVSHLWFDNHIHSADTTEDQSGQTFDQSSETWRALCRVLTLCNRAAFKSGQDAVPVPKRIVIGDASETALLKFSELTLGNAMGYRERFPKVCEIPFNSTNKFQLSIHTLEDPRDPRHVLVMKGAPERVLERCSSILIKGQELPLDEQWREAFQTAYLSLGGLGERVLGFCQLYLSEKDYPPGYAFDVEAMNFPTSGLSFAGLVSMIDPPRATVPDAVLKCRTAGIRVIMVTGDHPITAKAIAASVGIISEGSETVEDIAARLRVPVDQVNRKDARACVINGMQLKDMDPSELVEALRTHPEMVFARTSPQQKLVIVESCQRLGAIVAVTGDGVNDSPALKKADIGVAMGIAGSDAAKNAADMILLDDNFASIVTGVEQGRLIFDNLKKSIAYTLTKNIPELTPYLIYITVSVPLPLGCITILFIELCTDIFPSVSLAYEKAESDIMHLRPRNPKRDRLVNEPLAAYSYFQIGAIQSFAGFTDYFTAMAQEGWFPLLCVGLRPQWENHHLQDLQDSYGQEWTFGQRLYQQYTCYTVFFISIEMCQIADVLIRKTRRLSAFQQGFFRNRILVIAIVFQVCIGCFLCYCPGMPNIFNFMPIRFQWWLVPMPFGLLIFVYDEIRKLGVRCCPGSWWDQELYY
T1 sequence (P18434 whole entry partner): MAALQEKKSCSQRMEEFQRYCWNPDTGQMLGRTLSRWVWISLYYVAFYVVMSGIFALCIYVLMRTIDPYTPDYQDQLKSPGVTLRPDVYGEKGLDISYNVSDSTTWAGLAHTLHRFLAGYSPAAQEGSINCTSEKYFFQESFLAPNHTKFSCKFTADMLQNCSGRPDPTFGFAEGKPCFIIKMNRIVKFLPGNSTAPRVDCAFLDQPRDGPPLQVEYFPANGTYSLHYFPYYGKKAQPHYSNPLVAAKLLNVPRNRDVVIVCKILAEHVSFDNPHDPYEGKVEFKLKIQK
Description: Data measured from 96-well plate contained triplicates of four different sets of K^+-dependent ATPase assays in the absence or presence of three different concentrations of synthesized compounds. Data were corrected for background values in the absence of K^+ at each compound concentration, and plot them against the double reciprocal axes in Supplementary Fig. 5. Data were also fitted by using simultaneous nonlinear regression as described previously to estimate their Ki values.

H+,K+-ATPase [2] = target: T1, H+,K+-ATPase; test: Dose-dependent inhibition of H+,K+-ATPase activity, membrane fractions; conditions: for H+,K+-ATPase activity, raw data of dose-dependent inhibition: single replicate values
[3] = [PCAB] -3.30103 (log, unit not given)
[4] = [PCAB] -3.52288 (log, unit not given)
[5] = [PCAB] -4 (log, unit not given)
[6] = [PCAB] -4.30103 (log, unit not given)
[7] = [PCAB] -4.52288 (log, unit not given)
[8] = [PCAB] -5 (log, unit not given)
[9] = [PCAB] -5.52288 (log, unit not given)
[10] = [PCAB] -6 (log, unit not given)
[11] = [PCAB] -6.30103 (log, unit not given)
[12] = [PCAB] -7 (log, unit not given)
[13] = [PCAB] -8 (log, unit not given)
[14] = [PCAB] -11 (log, unit not given; possibly placeholder for no compound)

## CNCC#CCOCc1cc(Cl)ccc1-c1ccc(Cl)cc1 [DQ-02]
H+,K+-ATPase [1]; compound concentration 5, 1/KCl 0.05 (units not given)
  reciprocal K+-stimulated ATPase activity, Lineweaver-Burk raw data: 0.0047 and 0.0046 and 0.005
H+,K+-ATPase [1]; compound concentration 5, 1/KCl 0.1 (units not given)
  reciprocal K+-stimulated ATPase activity, Lineweaver-Burk raw data: 0.0059 and 0.0058 (2×)
H+,K+-ATPase [1]; compound concentration 5, 1/KCl 0.125 (units not given)
  reciprocal K+-stimulated ATPase activity, Lineweaver-Burk raw data: 0.0059 (2×) and 0.006
H+,K+-ATPase [1]; compound concentration 5, 1/KCl 0.2 (units not given)
  reciprocal K+-stimulated ATPase activity, Lineweaver-Burk raw data: 0.0059 (2×) and 0.0061
H+,K+-ATPase [1]; compound concentration 5, 1/KCl 0.5 (units not given)
  reciprocal K+-stimulated ATPase activity, Lineweaver-Burk raw data: 0.0114 and 0.0113 and 0.0109
H+,K+-ATPase [1]; compound concentration 5, 1/KCl 1 (units not given)
  reciprocal K+-stimulated ATPase activity, Lineweaver-Burk raw data: 0.0177 and 0.0175 and 0.0166
H+,K+-ATPase [1]; compound concentration 5, 1/KCl 2 (units not given)
  reciprocal K+-stimulated ATPase activity, Lineweaver-Burk raw data: 0.0312 and 0.0335 and 0.0294
H+,K+-ATPase [1]; compound concentration 10, 1/KCl 0.05 (units not given)
  reciprocal K+-stimulated ATPase activity, Lineweaver-Burk raw data: 0.0052
H+,K+-ATPase [1]; compound concentration 10, 1/KCl 0.1 (units not given)
  reciprocal K+-stimulated ATPase activity, Lineweaver-Burk raw data: 0.0066 and 0.0067 and 0.0069
H+,K+-ATPase [1]; compound concentration 10, 1/KCl 0.125 (units not given)
  reciprocal K+-stimulated ATPase activity, Lineweaver-Burk raw data: 0.0073 and 0.0075 and 0.0074
H+,K+-ATPase [1]; compound concentration 10, 1/KCl 0.2 (units not given)
  reciprocal K+-stimulated ATPase activity, Lineweaver-Burk raw data: 0.0079 and 0.0078 and 0.0077
H+,K+-ATPase [1]; compound concentration 10, 1/KCl 0.5 (units not given)
  reciprocal K+-stimulated ATPase activity, Lineweaver-Burk raw data: 0.0173 and 0.016 and 0.018
H+,K+-ATPase [1]; compound concentration 10, 1/KCl 1 (units not given)
  reciprocal K+-stimulated ATPase activity, Lineweaver-Burk raw data: 0.0258 (2×) and 0.029
H+,K+-ATPase [1]; compound concentration 10, 1/KCl 2 (units not given)
  reciprocal K+-stimulated ATPase activity, Lineweaver-Burk raw data: 0.0498 and 0.0514 and 0.0558
H+,K+-ATPase [1]; compound concentration 40, 1/KCl 0.05 (units not given)
  reciprocal K+-stimulated ATPase activity, Lineweaver-Burk raw data: 0.0101 and 0.0102 and 0.0088
H+,K+-ATPase [1]; compound concentration 40, 1/KCl 0.1 (units not given)
  reciprocal K+-stimulated ATPase activity, Lineweaver-Burk raw data: 0.0146 and 0.0158 and 0.0151
H+,K+-ATPase [1]; compound concentration 40, 1/KCl 0.125 (units not given)
  reciprocal K+-stimulated ATPase activity, Lineweaver-Burk raw data: 0.0175 and 0.0157 and 0.013
H+,K+-ATPase [1]; compound concentration 40, 1/KCl 0.2 (units not given)
  reciprocal K+-stimulated ATPase activity, Lineweaver-Burk raw data: 0.0176 and 0.0181 and 0.0182
H+,K+-ATPase [1]; compound concentration 40, 1/KCl 0.5 (units not given)
  reciprocal K+-stimulated ATPase activity, Lineweaver-Burk raw data: 0.0393 and 0.036 and 0.0314
H+,K+-ATPase [1]; compound concentration 40, 1/KCl 1 (units not given)
  reciprocal K+-stimulated ATPase activity, Lineweaver-Burk raw data: 0.0754 and 0.0762 and 0.0737
H+,K+-ATPase [1]; compound concentration 40, 1/KCl 2 (units not given)
  reciprocal K+-stimulated ATPase activity, Lineweaver-Burk raw data: 0.1646 and 0.1689 and 0.18
H+,K+-ATPase [1]; double reciprocal plot analysis, K+-competitive, read-out: estimated inhibition constant Ki
  Ki: 4.65 µM
H+,K+-ATPase [1]; double reciprocal plot, versus K+
  inhibition mode: typical competitive inhibition pattern
H+,K+-ATPase [2]
  IC50: 39.9 ± 3.3 µM
H+,K+-ATPase [2]; [3]
  H+,K+-ATPase activity, raw data of dose-dependent inhibition: -3.48 and -2.88 and 2.99 and 4.4 and 2.96 and 5.89
H+,K+-ATPase [2]; [4]
  H+,K+-ATPase activity, raw data of dose-dependent inhibition: 0.86 and 1.16 and 4.19 and 5.19 and 4.89 and 4.75
H+,K+-ATPase [2]; [5]
  H+,K+-ATPase activity, raw data of dose-dependent inhibition: 42.01 and 43.89 and 31.47 and 31.59 and 28.65 and 29.6
H+,K+-ATPase [2]; [6]
  H+,K+-ATPase activity, raw data of dose-dependent inhibition: 44.62 and 46.8 and 48.6 and 46.17 and 46.72 and 37.34
H+,K+-ATPase [2]; [7]
  H+,K+-ATPase activity, raw data of dose-dependent inhibition: 56.61 and 55.53 and 56.64 and 57.99 and 58.21 and 59.24
H+,K+-ATPase [2]; [8]
  H+,K+-ATPase activity, raw data of dose-dependent inhibition: 76.31 and 74.65 and 77.66 and 80.01 and 78.54 and 73.73
H+,K+-ATPase [2]; [9]
  H+,K+-ATPase activity, raw data of dose-dependent inhibition: 94.23 and 90.64 and 95.59 and 93.89 and 93 and 95.88
H+,K+-ATPase [2]; [10]
  H+,K+-ATPase activity, raw data of dose-dependent inhibition: 97.7 and 98.02 and 94.2 and 97.49 and 93.51 and 99.15
H+,K+-ATPase [2]; [11]
  H+,K+-ATPase activity, raw data of dose-dependent inhibition: 97.98 and 96.67 and 103.79 and 104.81 and 106.59 and 107.52
H+,K+-ATPase [2]; [12]
  H+,K+-ATPase activity, raw data of dose-dependent inhibition: 99.57 and 99.45 and 98.18 and 98.05 and 96.63 and 99.09
H+,K+-ATPase [2]; [13]
  H+,K+-ATPase activity, raw data of dose-dependent inhibition: 97.5 and 100.13 and 97.23 and 97.51 and 96.21 and 102.69
H+,K+-ATPase [2]; [14]
  H+,K+-ATPase activity, raw data of dose-dependent inhibition: 99.85 and 98.59 and 101.41 and 99.82 and 98.22 and 99.87

## CNCc1ccc(OCc2c(Cl)cccc2OCc2ccccc2)cc1 [DQ-19]
H+,K+-ATPase [2]
  IC50: 3.52 ± 0.22 µM
H+,K+-ATPase [2]; [3]
  H+,K+-ATPase activity, raw data of dose-dependent inhibition: -0.65 and -0.09 and -0.18 (2×) and 0.39 and -0.03
H+,K+-ATPase [2]; [4]
  H+,K+-ATPase activity, raw data of dose-dependent inhibition: 1.38 and 2.32 and 2.04 and 1.91 and 2.46 and 2.13
H+,K+-ATPase [2]; [5]
  H+,K+-ATPase activity, raw data of dose-dependent inhibition: 10.36 and 10.46 and 8.18 and 7.73 and 7.75 and 7.91
H+,K+-ATPase [2]; [6]
  H+,K+-ATPase activity, raw data of dose-dependent inhibition: 16.41 and 15.72 and 6.63 and 6.46 and 5.99 and 5.93
H+,K+-ATPase [2]; [7]
  H+,K+-ATPase activity, raw data of dose-dependent inhibition: 18.62 (2×) and 17.28 and 17.05 and 16.78 and 16.42
H+,K+-ATPase [2]; [8]
  H+,K+-ATPase activity, raw data of dose-dependent inhibition: 27.04 and 27.03 and 26.28 and 26.11 and 26 and 25.46
H+,K+-ATPase [2]; [9]
  H+,K+-ATPase activity, raw data of dose-dependent inhibition: 56.8 and 57.52 and 52.1 and 50.99 and 52.47 and 50.98
H+,K+-ATPase [2]; [10]
  H+,K+-ATPase activity, raw data of dose-dependent inhibition: 77.41 and 78.78 and 71.45 and 74.76 and 72.12 and 73.47
H+,K+-ATPase [2]; [11]
  H+,K+-ATPase activity, raw data of dose-dependent inhibition: 84.8 and 85.13 and 83.98 and 84.02 and 82.9 and 83.28
H+,K+-ATPase [2]; [12]
  H+,K+-ATPase activity, raw data of dose-dependent inhibition: 91.5 and 92.21 and 96.4 and 96.06 and 98.84 and 94.11
H+,K+-ATPase [2]; [13]
  H+,K+-ATPase activity, raw data of dose-dependent inhibition: 95.21 and 97 and 100.13 and 98.68 and 100.43 and 97.42
H+,K+-ATPase [2]; [14]
  H+,K+-ATPase activity, raw data of dose-dependent inhibition: 95.94 and 97.66 and 99.42 and 99.81 and 100.11 and 99.03

Reference: paper PMC10509173, “Deep learning driven de novo drug design based on gastric proton pump structures” (Communications Biology, 2023)
